Reference: article PMC8017616, “Discovery of two novel laccase-like multicopper oxidases from Pleurotus citrinopileatus and their application in phenolic oligomer synthesis” (Biotechnology for Biofuels, 2021)
Structures can show the parent of a compound that is named as a salt. Where two headings read alike, the source gives them in different places.

Legend:
Settings in all cases: 50 mM phosphate-citrate buffer pH 4; routine assay 35 °C
PcLac1 [1] = system: T1, PcLac1; test: spectrophotometric oxidation at […] nm, nonlinear Michaelis-Menten fit; type: biochemical, Pleurotus citrinopileatus
T1 construct: native, purified from culture supernatant (Q Sepharose, DEAE Sepharose); 60 kDa by SDS-PAGE

PcLac2 [2] = system: T2, PcLac2; test: as above; type: biochemical, Pleurotus citrinopileatus
T2 construct: native, purified from culture supernatant (Q Sepharose, DEAE Sepharose); about 75 kDa by SDS-PAGE; band also holds a copper radical oxidase-like protein

PcLac2 [3] = system: PcLac2
PcLac1 [4] = system: PcLac1

Structure (SMILES) | Km (PcLac1 [1]) | Km (PcLac2 [2]) | Km (PcLac2 [3]) | Km (PcLac1 [4])
COc1cccc(OC)c1O [2,6-DMP, 2,6-dimethoxyphenol] | 672 ± 56 µM | 1070 ± 105 µM |  | 
CCn1c(=NN=c2sc3cc(S(=O)(=O)O)ccc3n2CC)sc2cc(S(=O)(=O)O)ccc21 [ABTS, 2,2′-Azino-bis-(3-ethylbenzthioazoline-6-sulfonic acid) diammonium salt] |  |  | 165 ± 15 µM | 60 ± 7 µM
